Measurements from PubChem BioAssay AID1963986 (Molecular Pharmacology Branch, DTP, NCI, 2024).

System: 171881-019-R-J1-PDC tumor spheroid viability
Test: Anticancer human tumor 171881-019-R-J1-PDC patient-derived invasive breast carcinoma cell line growth inhibition [PI3K]
Details: spheroids with HUVEC and MSC; for IC50: curve of first compound; for viability, T/C: stronger effect = lower value; active = viability on the fitted dose curve at most 10% of control; inactive = the rest
Summary of the method: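 Three cell types, namely tumor cells, endothelial cells and mesenchymal stem cells, formed each spheroid. Combinations with four PI3K inhibitors were screened at clinically achievable concentrations decreasing by half-log, and spheroid viability was recorded.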

[1] = second compound 0.00316 µM, first compound 0.0316 µM
[2] = second compound 0.00316 µM, first compound 0.1 µM
[3] = second compound 0.01 µM, first compound 0.0316 µM
[4] = second compound 0.01 µM, first compound 0.1 µM
[5] = second compound 0.0316 µM, first compound 0.0316 µM
[6] = second compound 0.0316 µM, first compound 0.1 µM
[7] = second compound 0.1 µM, first compound 0.0316 µM
[8] = second compound 0.1 µM, first compound 0.1 µM
[9] = second compound 0.316 µM, first compound 0.0316 µM
[10] = second compound 0.316 µM, first compound 0.1 µM
[11] = second compound 1 µM, first compound 0.0316 µM
[12] = second compound 1 µM, first compound 0.1 µM
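Also: spheroids exposed to compound for 7 days before viability read.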
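For viability, T/C in this document: 100% = DMSO vehicle-treated spheroids.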

CC(=O)c1c(C)c2cnc(Nc3ccc(N4CCNCC4)cn3)nc2n(C2CCCC2)c1=O + COc1c(OCCCN2CCOCC2)ccc2c3n(c(=NC(=O)c4cnc(N)nc4)nc12)CCN3
> 100 nM: IC50 (second compound 0.00316 µM)
active: viability, T/C (second compound 0.1 µM, first compound 0.000316 µM) 6.71% | viability, T/C (second compound 0.1 µM, first compound 0.001 µM) 6.39% | viability, T/C (second compound 0.1 µM, first compound 0.00316 µM) 8.12% | viability, T/C (second compound 0.1 µM, first compound 0.01 µM) 7.28% | viability, T/C [7] 8.51% | viability, T/C [8] 7.44% | viability, T/C (second compound 0.316 µM, first compound 0.000316 µM) 1.58% | viability, T/C (second compound 0.316 µM, first compound 0.001 µM) 2.19% | viability, T/C (second compound 0.316 µM, first compound 0.00316 µM) 1.53% | viability, T/C (second compound 0.316 µM, first compound 0.01 µM) 1.61% | viability, T/C [9] 1.59% | viability, T/C [10] 1.7% | viability, T/C (second compound 1 µM, first compound 0.000316 µM) 1.49% | viability, T/C (second compound 1 µM, first compound 0.001 µM) 1.21% | viability, T/C (second compound 1 µM, first compound 0.00316 µM) 1.21% | viability, T/C (second compound 1 µM, first compound 0.01 µM) 1.26% | viability, T/C [11] 1.35% | viability, T/C [12] 1.32%
< 0.316 nM: IC50 (second compound 0.01 µM) | IC50 (second compound 0.0316 µM) | IC50 (second compound 0.1 µM) | IC50 (second compound 0.316 µM) | IC50 (second compound 1 µM)
inactive: viability, T/C (second compound 0.00316 µM, first compound 0.000316 µM) 64.3% | viability, T/C (second compound 0.00316 µM, first compound 0.001 µM) 63.9% | viability, T/C (second compound 0.00316 µM, first compound 0.00316 µM) 65.5% | viability, T/C (second compound 0.00316 µM, first compound 0.01 µM) 73% | viability, T/C [1] 65% | viability, T/C [2] 70.4% | viability, T/C (second compound 0.01 µM, first compound 0.000316 µM) 48.1% | viability, T/C (second compound 0.01 µM, first compound 0.001 µM) 53.9% | viability, T/C (second compound 0.01 µM, first compound 0.00316 µM) 52.2% | viability, T/C (second compound 0.01 µM, first compound 0.01 µM) 55.1% | viability, T/C [3] 57.9% | viability, T/C [4] 58.5% | viability, T/C (second compound 0.0316 µM, first compound 0.000316 µM) 20.7% | viability, T/C (second compound 0.0316 µM, first compound 0.001 µM) 25% | viability, T/C (second compound 0.0316 µM, first compound 0.00316 µM) 26.8% | viability, T/C (second compound 0.0316 µM, first compound 0.01 µM) 27% | viability, T/C [5] 28.5% | viability, T/C [6] 27.9%

CCCS(=O)(=O)Nc1ccc(F)c(C(=O)c2c[nH]c3ncc(-c4ccc(Cl)cc4)cc23)c1F + COc1c(OCCCN2CCOCC2)ccc2c3n(c(=NC(=O)c4cnc(N)nc4)nc12)CCN3
4520 nM: IC50 (second compound 0.01 µM)
< 31.6 nM: IC50 (second compound 0.0316 µM) | IC50 (second compound 0.1 µM) | IC50 (second compound 0.316 µM) | IC50 (second compound 1 µM)
inactive: viability, T/C [1] 70.6% | viability, T/C [2] 81.9% | viability, T/C (second compound 0.00316 µM, first compound 0.316 µM) 94.3% | viability, T/C (second compound 0.00316 µM, first compound 1 µM) 108% | viability, T/C (second compound 0.00316 µM, first compound 3.16 µM) 93.7% | viability, T/C (second compound 0.00316 µM, first compound 10 µM) 12.9% | viability, T/C [3] 53.8% | viability, T/C [4] 60% | viability, T/C (second compound 0.01 µM, first compound 0.316 µM) 67.2% | viability, T/C (second compound 0.01 µM, first compound 1 µM) 83.6% | viability, T/C (second compound 0.01 µM, first compound 3.16 µM) 76.5% | viability, T/C [5] 29% | viability, T/C [6] 29.3% | viability, T/C (second compound 0.0316 µM, first compound 0.316 µM) 32% | viability, T/C (second compound 0.0316 µM, first compound 1 µM) 40.5% | viability, T/C (second compound 0.0316 µM, first compound 3.16 µM) 45.8% | viability, T/C (second compound 0.0316 µM, first compound 10 µM) 5.59% | viability, T/C [7] 9.3% | viability, T/C [8] 10.5% | viability, T/C (second compound 0.1 µM, first compound 0.316 µM) 10.9% | viability, T/C (second compound 0.1 µM, first compound 1 µM) 13.9% | viability, T/C (second compound 0.1 µM, first compound 3.16 µM) 17.3% | viability, T/C (second compound 0.1 µM, first compound 10 µM) 2.6%
active: viability, T/C (second compound 0.01 µM, first compound 10 µM) 9.83% | viability, T/C [9] 2.18% | viability, T/C [10] 2.42% | viability, T/C (second compound 0.316 µM, first compound 0.316 µM) 3.05% | viability, T/C (second compound 0.316 µM, first compound 1 µM) 2.63% | viability, T/C (second compound 0.316 µM, first compound 3.16 µM) 3.95% | viability, T/C (second compound 0.316 µM, first compound 10 µM) 2.09% | viability, T/C [11] 1.32% | viability, T/C [12] 1.32% | viability, T/C (second compound 1 µM, first compound 0.316 µM) 1.47% | viability, T/C (second compound 1 µM, first compound 1 µM) 1.16% | viability, T/C (second compound 1 µM, first compound 3.16 µM) 1.64% | viability, T/C (second compound 1 µM, first compound 10 µM) 3.34%
5730 nM: IC50 (second compound 0.00316 µM)
